Measurements reported in the NIST ThermoML archive (doi:10.1021/je050060q).
Numbers after ± are expanded uncertainties.

Assay: xn = mol fraction of the nth substance listed
Settings: 101.3 kPa, Liquid; for mass density: Pycnometric method

## CCCCCCCCCCCCCCCC [hexadecane] + CCCCCC
293.15 K, x2 = 0.1
  mass density: 768.1 ± 0.25 kg/m3
  speed of sound: 1341 ± 3 m/s
293.15 K, x2 = 0.2
  mass density: 762.36 ± 0.24 kg/m3
  speed of sound: 1327 ± 3 m/s
293.15 K, x2 = 0.3
  mass density: 756.02 ± 0.23 kg/m3
  speed of sound: 1314 ± 3 m/s
293.15 K, x2 = 0.4
  mass density: 748.67 ± 0.22 kg/m3
  speed of sound: 1297 ± 3 m/s
293.15 K, x2 = 0.5
  mass density: 740.14 ± 0.21 kg/m3
  speed of sound: 1277 ± 3 m/s
293.15 K, x2 = 0.6
  mass density: 729.79 ± 0.2 kg/m3
  speed of sound: 1254 ± 3 m/s
293.15 K, x2 = 0.7
  mass density: 717.46 ± 0.2 kg/m3
  speed of sound: 1228 ± 3 m/s
293.15 K, x2 = 0.8
  mass density: 702.3 ± 0.19 kg/m3
  speed of sound: 1196 ± 3 m/s
293.15 K, x2 = 0.9
  mass density: 683.23 ± 0.18 kg/m3
  speed of sound: 1151 ± 3 m/s
298.15 K, x2 = 0.1
  mass density: 764.7 ± 0.25 kg/m3
  speed of sound: 1322 ± 3 m/s
298.15 K, x2 = 0.2
  mass density: 758.88 ± 0.24 kg/m3
  speed of sound: 1308 ± 3 m/s
298.15 K, x2 = 0.3
  mass density: 752.56 ± 0.24 kg/m3
  speed of sound: 1295 ± 3 m/s
298.15 K, x2 = 0.4
  mass density: 745.03 ± 0.23 kg/m3
  speed of sound: 1277 ± 3 m/s
298.15 K, x2 = 0.5
  mass density: 736.52 ± 0.22 kg/m3
  speed of sound: 1257 ± 3 m/s
298.15 K, x2 = 0.6
  mass density: 726.08 ± 0.21 kg/m3
  speed of sound: 1234 ± 3 m/s
298.15 K, x2 = 0.7
  mass density: 713.68 ± 0.2 kg/m3
  speed of sound: 1207 ± 3 m/s
298.15 K, x2 = 0.8
  mass density: 698.4 ± 0.19 kg/m3
  speed of sound: 1175 ± 3 m/s
298.15 K, x2 = 0.9
  mass density: 679.04 ± 0.18 kg/m3
  speed of sound: 1129 ± 3 m/s
303.15 K, x2 = 0.1
  mass density: 761.25 ± 0.26 kg/m3
  speed of sound: 1304 ± 3 m/s
303.15 K, x2 = 0.2
  mass density: 755.4 ± 0.25 kg/m3
  speed of sound: 1289 ± 3 m/s
303.15 K, x2 = 0.3
  mass density: 749.09 ± 0.24 kg/m3
  speed of sound: 1275 ± 3 m/s
303.15 K, x2 = 0.4
  mass density: 741.49 ± 0.24 kg/m3
  speed of sound: 1258 ± 3 m/s
303.15 K, x2 = 0.5
  mass density: 732.9 ± 0.23 kg/m3
  speed of sound: 1237 ± 3 m/s
303.15 K, x2 = 0.6
  mass density: 722.32 ± 0.22 kg/m3
  speed of sound: 1215 ± 3 m/s
303.15 K, x2 = 0.7
  mass density: 709.86 ± 0.21 kg/m3
  speed of sound: 1187 ± 3 m/s
303.15 K, x2 = 0.8
  mass density: 694.47 ± 0.2 kg/m3
  speed of sound: 1154 ± 3 m/s
303.15 K, x2 = 0.9
  mass density: 674.8 ± 0.19 kg/m3
  speed of sound: 1108 ± 3 m/s
308.15 K, x2 = 0.1
  mass density: 757.78 ± 0.27 kg/m3
  speed of sound: 1285 ± 3 m/s
308.15 K, x2 = 0.2
  mass density: 751.9 ± 0.26 kg/m3
  speed of sound: 1270 ± 3 m/s
308.15 K, x2 = 0.3
  mass density: 745.61 ± 0.25 kg/m3
  speed of sound: 1256 ± 3 m/s
308.15 K, x2 = 0.4
  mass density: 737.93 ± 0.24 kg/m3
  speed of sound: 1238 ± 3 m/s
308.15 K, x2 = 0.5
  mass density: 729.25 ± 0.24 kg/m3
  speed of sound: 1217 ± 3 m/s
308.15 K, x2 = 0.6
  mass density: 718.63 ± 0.23 kg/m3
  speed of sound: 1195 ± 3 m/s
308.15 K, x2 = 0.7
  mass density: 706.03 ± 0.22 kg/m3
  speed of sound: 1167 ± 3 m/s
308.15 K, x2 = 0.8
  mass density: 690.5 ± 0.21 kg/m3
  speed of sound: 1133 ± 3 m/s
308.15 K, x2 = 0.9
  mass density: 670.53 ± 0.2 kg/m3
  speed of sound: 1086 ± 3 m/s
313.15 K, x2 = 0.1
  mass density: 754.31 ± 0.27 kg/m3
  speed of sound: 1266 ± 3 m/s
313.15 K, x2 = 0.2
  mass density: 748.41 ± 0.27 kg/m3
  speed of sound: 1251 ± 3 m/s
313.15 K, x2 = 0.3
  mass density: 741.92 ± 0.26 kg/m3
  speed of sound: 1237 ± 3 m/s
313.15 K, x2 = 0.4
  mass density: 734.37 ± 0.25 kg/m3
  speed of sound: 1219 ± 3 m/s
313.15 K, x2 = 0.5
  mass density: 725.59 ± 0.24 kg/m3
  speed of sound: 1198 ± 3 m/s
313.15 K, x2 = 0.6
  mass density: 714.88 ± 0.24 kg/m3
  speed of sound: 1175 ± 3 m/s
313.15 K, x2 = 0.7
  mass density: 702.18 ± 0.23 kg/m3
  speed of sound: 1146 ± 3 m/s
313.15 K, x2 = 0.8
  mass density: 686.49 ± 0.22 kg/m3
  speed of sound: 1112 ± 3 m/s
313.15 K, x2 = 0.9
  mass density: 666.22 ± 0.21 kg/m3
  speed of sound: 1065 ± 3 m/s
318.15 K, x2 = 0.1
  mass density: 750.84 ± 0.28 kg/m3
  speed of sound: 1248 ± 3 m/s
318.15 K, x2 = 0.2
  mass density: 744.91 ± 0.27 kg/m3
  speed of sound: 1232 ± 3 m/s
318.15 K, x2 = 0.3
  mass density: 738.42 ± 0.27 kg/m3
  speed of sound: 1219 ± 3 m/s
318.15 K, x2 = 0.4
  mass density: 730.8 ± 0.26 kg/m3
  speed of sound: 1200 ± 3 m/s
318.15 K, x2 = 0.5
  mass density: 721.92 ± 0.25 kg/m3
  speed of sound: 1178 ± 3 m/s
318.15 K, x2 = 0.6
  mass density: 711.12 ± 0.24 kg/m3
  speed of sound: 1156 ± 3 m/s
318.15 K, x2 = 0.7
  mass density: 698.3 ± 0.23 kg/m3
  speed of sound: 1126 ± 3 m/s
318.15 K, x2 = 0.8
  mass density: 682.45 ± 0.23 kg/m3
  speed of sound: 1091 ± 3 m/s
318.15 K, x2 = 0.9
  mass density: 661.87 ± 0.22 kg/m3
  speed of sound: 1044 ± 3 m/s
323.15 K, x2 = 0.1
  mass density: 747.36 ± 0.29 kg/m3
323.15 K, x2 = 0.2
  mass density: 741.4 ± 0.28 kg/m3
323.15 K, x2 = 0.3
  mass density: 734.92 ± 0.27 kg/m3
323.15 K, x2 = 0.4
  mass density: 727.21 ± 0.27 kg/m3
323.15 K, x2 = 0.5
  mass density: 718.23 ± 0.26 kg/m3
323.15 K, x2 = 0.6
  mass density: 707.34 ± 0.25 kg/m3
323.15 K, x2 = 0.7
  mass density: 694.38 ± 0.24 kg/m3
323.15 K, x2 = 0.8
  mass density: 678.36 ± 0.23 kg/m3
323.15 K, x2 = 0.9
  mass density: 657.47 ± 0.22 kg/m3
